Test results published in patent publication US12083115B2, “Methods for treating neurological symptoms associated with lysosomal storage diseases” (Genzyme Corporation, priority 2020, dated 2024).

How the values were obtained:
[1] = tested on: plasma GM3 (GM3 ganglioside); assay: Study 2: plasma GM3 pharmacodynamics; assay type: in vivo, human
Description: The study enrolled and randomized 36 healthy adults (19 men and 17 women) (n=9 each to group).
Pharmacodynamic endpoints (plasma GL-1, GL-3, and GM3 concentrations) were assessed on Days 1-5, 8, 11, 13, and 14, at 0 hours […]; and on Day 15, at 24 hours after the Day 14 dose.

[2] = tested on: ceramide, chitotriosidase (CHITO), GM3, GPNMB in CSF; assay: Clinical study in GD-3 patients: exploratory CSF biomarkers; assay type: in vivo, human
Description: (§1) During the study patients were evaluated for safety and tolerability, CSF and plasma biomarkers (glucosylceramide, GL-1; glucosylsphingosine, lyso-GL1), pharmacokinetics, markers for systemic disease (spleen and liver volume measured by magnetic resonance imaging (MRI), platelet count, hemoglobin levels), indicia of interstitial lung disease (high resolution pulmonary computed tomography (CT)), and horizontal saccadic eye movement. In addition, exploratory biomarkers were quantified in CSF of GD3 patients: ceramide (the precursor of GL-1), chitotriosidase (CHITO), GM3, and GPNMB. Symptoms of ataxia were measured using the SARA scale, neurological symptoms were measured using the trail making test, and functional MRI was used to assess neural connectivity in the brain.
In addition, exploratory biomarkers were quantified in CSF of GD3 patients: ceramide (the precursor of GL-1), chitotriosidase (CHITO; an enzyme known to be elevated in GD patients), GM3 (a glycosphingolipid marker known to be elevated in GD patients), and GPNMB (glycoprotein nonmetastatic melanoma protein B, reportedly a biomarker of neuropathic GD3).

[3] = tested on: GM3 expression in C32 human melanoma cells; assay: GM3 fluorescent-linked immunosorbent assay (FLISA), C32; assay type: cell-based; details: 48 hours
Source text: Inhibition of glucosylceramide synthase activity can be measured with one or more assays. A first assay is a microsomal assay that directly measures the conversion of ceramide to glucosylceramide by HPLC. Microsomes are a source of glucosylceramide synthase activity in the microsomal assay. A second assay is a cell based, phenotypic assay that monitors cell surface expression of the downstream lipid GM3 by antibody mediated immunofluorescence. Specific protocols are provided below.
This is a phenotypic assay that measures GM3 expression in B16 mouse melanoma or C32 human melanoma cells following treatment with test compounds. Cell surface GM3 expression is determined by antibody mediated fluorescence.
Compounds are diluted in media and plated in 384 well plates in DMSO. B16 and C32 cells are assayed at densities of 20,000 cells/ml and 62,500 cells/ml, respectively, per well. Each titration curve contains 10 points that are assayed in duplicate on each test run. The plates are incubated for 48 hours at 37° C., 5% CO2, and are then washed once with TBS. Anti-GM3 antibody is added to each well and the plates are then incubated for an additional one hour at room temperature. Plates are subsequently washed twice and incubated for an additional hour with the labeled secondary antibody. Following the final incubation, the plates are washed twice and the fluorescence at λex=D640/20 nm and λem=657 nm is detected on a fluorescent reader.
The results of the microsomal assays are expressed as “GCS IC50,” which represents the concentration of the compound causing 50% inhibition of glucosylceramide synthase activity. The results of the cell-based assays are expressed as “GM3 B16 IC50” or “GM3 C32 IC50” for the B16 assay and the C32 assay, respectively. These values represent the concentration of the compound causing 50% inhibition of GM3 expression on the cell surface.

[4] = tested on: adult patients with Gaucher disease Type 3; assay: Clinical study in GD-3 patients: trail making test (TMT), Trail B minus Trail A time; assay type: in vivo, human; details: for TMT-A (s)-TMT-B (s), Average: screening 126 (n = 6)
Description: as §1
The trail making test (TMT) was used to evaluate cognitive function in the patients. The TMT is one of the most widely used neuropsychological tests and is included in most test batteries. The TMT is a diagnostic tool to assess general intelligence and cognitive dysfunctions (Tombaugh et al. [2004]; Cavaco et al. [2013]). In part A of the TMT (TMT-A), subjects are asked to connect a cluster of numbers in ascending order (Trail A). This task is a combination of visual search and general visual and motor processing speed. Part B (TMT-B) presents a sequence which alternates between numbers and letters (Trail B). Subjects must actively switch between both categories when connecting them in ascending, but alternating order.
TMT-A evaluates mainly perceptual and psychomotor speed. TMT-B assesses more specifically mental flexibility and shifting abilities. TMT-B minus TMT-A score is used to remove the variance attributable to the graphomotor and visual scanning components of TMT-A. This derived score reflects the unique task requirements of TMT-B.

## CC(C)(NC(=O)O[C@@H]1CN2CCC1CC2)c1csc(-c2ccc(F)cc2)n1 [Compound 2, (S)-quinuclidin-3-yl 2-(2-(4-fluorophenyl)thiazol-4-yl)propan-2-ylcarbamate]
[1]; Day 15, 5-mg dose group
  Mean plasma GM3 level, % of baseline: 42.7 % of baseline
[1]; Day 15, 10-mg dose group
  Mean plasma GM3 level, % of baseline: 49.4 % of baseline
  subjects with GM3 below the LLOQ: 1 subjects
[1]; Day 15, 20-mg dose group
  Mean plasma GM3 level, % of baseline: 57.8 % of baseline
  subjects with GM3 below the LLOQ: 2 subjects
[1]; all Compound 2 dose groups
  start day of maximal sustained GM3 decreases: 13 days
[2]; After 52 weeks of treatment, N = 6
  CSF concentrations of ceramide, CHITO, or GPNMB: no significant changes
[2]; four patients with measurable GM3 at baseline, at 4 weeks, 26 weeks, and 52 weeks
  GM3 in CSF: undetectable
[3]
  IC50: 9.6 µM
[4]; 52 weeks, 11 patients
  patients with positive correlation between reduction of CSF GL-1 and TMT time: 6 of 11
[4]; Patient 1, Week 26, screening 13, 15 mg/day + imiglucerase
  Trail B minus Trail A time: 21 s
[4]; Patient 1, Week 52, screening 13, 15 mg/day + imiglucerase
  Trail B minus Trail A time: 16 s
[4]; Patient 1, 15 mg/day + imiglucerase
  TMT-A (s)-TMT-B (s), Change (%) from Baseline to Week 52: +23%
[4]; Patient 2, Week 26, screening 71, 15 mg/day + imiglucerase
  Trail B minus Trail A time: 37 s
[4]; Patient 2, Week 52, screening 71, 15 mg/day + imiglucerase
  Trail B minus Trail A time: 57 s
[4]; Patient 2, 15 mg/day + imiglucerase
  TMT-A (s)-TMT-B (s), Change (%) from Baseline to Week 52: −20%
[4]; Patient 3, Week 26, screening 72, 15 mg/day + imiglucerase
  Trail B minus Trail A time: 56 s
[4]; Patient 3, Week 52, screening 72, 15 mg/day + imiglucerase
  Trail B minus Trail A time: 20 s
[4]; Patient 3, 15 mg/day + imiglucerase
  TMT-A (s)-TMT-B (s), Change (%) from Baseline to Week 52: −72%
[4]; Patient 4, Week 52, screening 116, 15 mg/day + imiglucerase
  Trail B minus Trail A time: 66 s
[4]; Patient 4, 15 mg/day + imiglucerase
  TMT-A (s)-TMT-B (s), Change (%) from Baseline to Week 52: −43%
[4]; Patient 5 (low Compound 2 exposure)
  TMT-A (s)-TMT-B (s), Change (%) from Baseline to Week 52: −3%
[4]; Patient 5 (low Compound 2 exposure), Week 26, screening 74
  Trail B minus Trail A time: 60 s
[4]; Patient 5 (low Compound 2 exposure), Week 52, screening 74
  Trail B minus Trail A time: 72 s
[4]; Patient 6, Week 26, screening 410, 15 mg/day + imiglucerase
  Trail B minus Trail A time: 440 s
[4]; Patient 6, Week 52, screening 410, 15 mg/day + imiglucerase
  Trail B minus Trail A time: 166 s
[4]; Patient 6, 15 mg/day + imiglucerase
  TMT-A (s)-TMT-B (s), Change (%) from Baseline to Week 52: −60%
[4]; Patient 7, Week 26, screening 86, 15 mg/day + imiglucerase
  Trail B minus Trail A time: 83 s
[4]; Patient 7, Week 52, screening 86, 15 mg/day + imiglucerase
  Trail B minus Trail A time: 110 s
[4]; Patient 7, 15 mg/day + imiglucerase
  TMT-A (s)-TMT-B (s), Change (%) from Baseline to Week 52: +28%
[4]; Patient 8, Week 26, screening 100, 15 mg/day + imiglucerase
  Trail B minus Trail A time: 54 s
[4]; Patient 8, Week 52, screening 100, 15 mg/day + imiglucerase
  Trail B minus Trail A time: 59 s
[4]; Patient 8, 15 mg/day + imiglucerase
  TMT-A (s)-TMT-B (s), Change (%) from Baseline to Week 52: −41%
[4]; Patient 9, Week 52, screening 59, 15 mg/day + imiglucerase
  Trail B minus Trail A time: 75 s
[4]; Patient 9, 15 mg/day + imiglucerase
  TMT-A (s)-TMT-B (s), Change (%) from Baseline to Week 52: +27%
[4]; Patient 10, Week 26, screening 73, 15 mg/day + imiglucerase
  Trail B minus Trail A time: 33 s
[4]; Patient 10, Week 52, screening 73, 15 mg/day + imiglucerase
  Trail B minus Trail A time: 6 s
[4]; Patient 10, 15 mg/day + imiglucerase
  TMT-A (s)-TMT-B (s), Change (%) from Baseline to Week 52: −92%
[4]; Patient 11, Week 26, screening 18, 15 mg/day + imiglucerase
  Trail B minus Trail A time: 48 s
[4]; Patient 11, Week 52, screening 18, 15 mg/day + imiglucerase
  Trail B minus Trail A time: 32 s
[4]; Patient 11, 15 mg/day + imiglucerase
  TMT-A (s)-TMT-B (s), Change (%) from Baseline to Week 52: +78%
[4]; Patients 1-6
  TMT-A (s)-TMT-B (s), Average Change (%) from Baseline to Week 52: −29%
[4]; Week 26, n = 5
  TMT-A (s)-TMT-B (s), Average: 123 (n = 5) s
[4]; Week 52, Excluding Patient 5
  patients exhibiting a TMT-A reduction: four of five
  patients exhibiting a TMT-B reduction: five of five
  patients exhibiting an improvement in Trail B minus Trial A: four of five
[4]; Week 52, Excluding Patient 5 (SD 37.6%)
  mean improvement in Trail B minus Trial A: −31.6%
[4]; Week 52, Excluding Patient 5 (SD 99.3 s)
  mean improvement in Trail B minus Trial A: -71.4 s
[4]; Week 52, N = 6
  patients exhibiting a reduction in the (TMT-B−TMT-A) time: 5 of 6
  patients with reduction in time taken to complete Trail A: Four of six
  patients with reduction in time taken to complete Trail B: six of six
[4]; Week 52, N = 6 (SD=55.2 s), baseline 67.8 s
  mean time taken to complete Trail A: 56.5 s
[4]; Week 52, N = 6 (SD=91.8 s), baseline 193.8 s
  mean time taken to complete Trail B: 122.7 s
[4]; Week 52, n = 6
  TMT-A (s)-TMT-B (s), Average: 66 (n = 6) s
[4]; one of the new patients, 52 weeks
  drop in the (TMT-B−TMT-A) time: 92%
